Measured values: US20050004038A1, “Bivalent inhibitors of Glutathione-S-Transferases” (priority 2003, published 2005)
pIC50: −log10 of the molar value. Where “and” joins values, the source holds several entries; their conditions need not be identical. Equal entries are not always repeated.

How the values were obtained:
[1] = target: T1, human glutathione S-transferase A1-1 (GSTA1-1) (Homo sapiens, UniProt P08263); experiment: CDNB assay of GST activity and inhibition, GST A1-1; assay type: biochemical; conditions: second value of the cell GSTP1-1/GSTA1-1, 20 nM GST
T1 construct: made in house; host or cells: E. coli
T1 sequence (P08263 1-222): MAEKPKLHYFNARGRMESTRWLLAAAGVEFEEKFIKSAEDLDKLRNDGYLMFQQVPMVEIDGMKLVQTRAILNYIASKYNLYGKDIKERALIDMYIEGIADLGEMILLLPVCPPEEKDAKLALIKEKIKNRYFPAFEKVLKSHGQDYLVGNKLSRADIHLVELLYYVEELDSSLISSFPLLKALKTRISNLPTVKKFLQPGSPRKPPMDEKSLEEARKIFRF
Protocol: (§1) GST isozymes. […] The enzyme was incubated with 10 mM dithiothreitol to ensure complete reduction of cysteine residues, followed by extensive dialysis to remove the reducing agent. […] Plasmodium GST (pGST) was a gift from Dr. Katja Becker (Justus Liebig University of Giessen), and murine GSTP and GSTA were gifts from Dr. Dave Eaton (University of Washington). Except where otherwise stated (i.e. testing of pGST in Example 6.4.5 and testing of murine GSTs in Example 6.4.7), GST isozymes tested were from human.
(§2) GST assays. Assays of GST activity and inhibition were performed with chloro-2,4-dinitrobenzene (CDNB) as the electrophilic substrate. Except where otherwise stated, GST concentration was 20 nM. […] Rates were determined by measuring absorption at 340 nm (λmax of glutathione-dinitrobenzene) for 1 minute on a Beckman DU 7400 spectrophotometer. For IC50 determinations, assays were performed at inhibitor concentrations ranging over at least […] (from 100-fold above the IC50 to 100-fold below). Data were fit to a sigmoidal dose-response function using GraphPad Prism to determine the 50% inhibitory concentration.

[2] = target: T2, human glutathione S-transferase P1-1 (GSTP1-1) (Homo sapiens, UniProt P09211); experiment: CDNB assay of GST activity and inhibition, GST P1-1; assay type: biochemical; conditions: for pIC50: first value of the cell GSTP1-1/GSTA1-1, CDNB assay, 20 nM GST; for fold greater affinity for GSTP1-1 (lower IC50) than the ligand domain alone: versus corresponding ligand domain (GS-NB/IId, IIg, IIId, IVk)
T2 construct: made in house; host or cells: E. coli
Protocol: as §1, §2

T2 sequence (P09211 2-210 limits assumed): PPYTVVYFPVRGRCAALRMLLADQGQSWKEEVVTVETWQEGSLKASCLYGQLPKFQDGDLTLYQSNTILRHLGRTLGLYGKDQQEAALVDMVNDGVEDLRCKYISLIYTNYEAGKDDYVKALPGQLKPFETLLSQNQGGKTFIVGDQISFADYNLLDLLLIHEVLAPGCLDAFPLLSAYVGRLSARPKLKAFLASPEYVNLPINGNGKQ

Row | Structure (SMILES) | pIC50 [1] | pIC50 [2] | fold greater affinity for GSTP1-1 (lower IC50) than the ligand domain alone [2] | fold lower IC50 for GSTP1-1 than the monovalent inhibitor ([2]; versus IVj) [fold] | isozyme specificity GSTP1-1 versus GSTA1-1 ([2]; in words)
1 | Nc1c(S(=O)(=O)O)cc(Nc2cccc(S(=O)(=O)CCNCCOCCOCCOCCNCCS(=O)(=O)c3cccc(Nc4cc(S(=O)(=O)O)c(N)c5c4C(=O)c4ccccc4C5=O)c3)c2)c2c1C(=O)c1ccccc1C2=O [IIIb] | < 4.00 | 7.14 |  |  | 
2 | NC(=O)c1cc(CNC(=O)CCCCCNCCS(=O)(=O)c2cccc(Nc3cc(S(=O)(=O)O)c(N)c4c3C(=O)c3ccccc3C4=O)c2)cc(CNC(=O)CCCCCNCCS(=O)(=O)c2cccc(Nc3cc(S(=O)(=O)O)c(N)c4c3C(=O)c3ccccc3C4=O)c2)c1 [IIIi] | < 6.00 | 6.69 |  |  | 
3 | NC(CCC(=O)NC(CSc1ccc(C(=O)OCCOC(=O)c2cccc(C(=O)OCCOC(=O)c3ccc(SCC(NC(=O)CCC(N)C(=O)O)C(=O)NCC(=O)O)c([N+](=O)[O-])c3)c2)cc1[N+](=O)[O-])C(=O)NCC(=O)O)C(=O)O (stereo not shown) [IIb] | 5.80 | 5.54 |  |  | 
4 | NC(=O)c1cc(CNC(=O)CCCCCCCNCCS(=O)(=O)c2cccc(Nc3cc(S(=O)(=O)O)c(N)c4c3C(=O)c3ccccc3C4=O)c2)cc(CNC(=O)CCCCCCCNCCS(=O)(=O)c2cccc(Nc3cc(S(=O)(=O)O)c(N)c4c3C(=O)c3ccccc3C4=O)c2)c1 [IIIj] | < 6.66 | 6.57 |  |  | 
5 | CCOC(=O)c1ccc(SCC(NC(=O)CCC(N)C(=O)O)C(=O)NCC(=O)O)c([N+](=O)[O-])c1 (stereo not shown) [IId*, reference compound] | 4.52 | 4.68 |  |  | no substantial isozyme specificity
6 | NC(=O)c1cc(CNCCS(=O)(=O)c2cccc(Nc3cc(S(=O)(=O)O)c(N)c4c3C(=O)c3ccccc3C4=O)c2)cc(CNCCS(=O)(=O)c2cccc(Nc3cc(S(=O)(=O)O)c(N)c4c3C(=O)c3ccccc3C4=O)c2)c1 [IIIe] | < 5.00 | 6.25 |  |  | 
7 | NC(CCC(=O)NC(CSc1ccc(C(=O)OCCOCCOCCOCCOC(=O)c2ccc(SCC(NC(=O)CCC(N)C(=O)O)C(=O)NCC(=O)O)c([N+](=O)[O-])c2)cc1[N+](=O)[O-])C(=O)NCC(=O)O)C(=O)O (stereo not shown) [IIa] | 4.54 | 5.35 |  |  | 
8 | CCNCCS(=O)(=O)c1cccc(Nc2cc(S(=O)(=O)O)c(N)c3c2C(=O)c2ccccc2C3=O)c1 [IIId*, reference compound] | < 4.00 | 5.30 |  |  | 
9 | Nc1c(S(=O)(=O)O)cc(Nc2cccc(S(=O)(=O)CCNCCOCCOCCNCCS(=O)(=O)c3cccc(Nc4cc(S(=O)(=O)O)c(N)c5c4C(=O)c4ccccc4C5=O)c3)c2)c2c1C(=O)c1ccccc1C2=O [IIIa] | < 4.00 | 7.36 |  |  | 
10 | NC(=O)c1cc(CNC(=O)CCCNCCS(=O)(=O)c2cccc(Nc3cc(S(=O)(=O)O)c(N)c4c3C(=O)c3ccccc3C4=O)c2)cc(CNC(=O)CCCNCCS(=O)(=O)c2cccc(Nc3cc(S(=O)(=O)O)c(N)c4c3C(=O)c3ccccc3C4=O)c2)c1 [IIIh] | < 6.00 | ~7.66 and 7.66 | approximately 220 fold |  | 
11 | NC(=O)c1cc(CNC(=O)CNCCS(=O)(=O)c2cccc(Nc3cc(S(=O)(=O)O)c(N)c4c3C(=O)c3ccccc3C4=O)c2)cc(CNC(=O)CNCCS(=O)(=O)c2cccc(Nc3cc(S(=O)(=O)O)c(N)c4c3C(=O)c3ccccc3C4=O)c2)c1 [IIIf] | < 6.00 | 6.36 |  |  | 
12 | Nc1c(S(=O)(=O)O)cc(Nc2cccc(S(=O)(=O)CCNCCCNC(=O)c3cccc(C(=O)NCCCNCCS(=O)(=O)c4cccc(Nc5cc(S(=O)(=O)O)c(N)c6c5C(=O)c5ccccc5C6=O)c4)c3)c2)c2c1C(=O)c1ccccc1C2=O [IIIc] | < 4.00 | 6.36 |  |  | 
13 | NC(=O)c1cccc(CNC(=O)CCCNCCS(=O)(=O)c2cccc(Nc3cc(S(=O)(=O)O)c(N)c4c3C(=O)c3ccccc3C4=O)c2)c1 [IIIl*, reference compound] | < 4.70 | 6.07 | approximately 6 fold |  | 
14 | NC(=O)c1cc(CNC(=O)CCNCCS(=O)(=O)c2cccc(Nc3cc(S(=O)(=O)O)c(N)c4c3C(=O)c3ccccc3C4=O)c2)cc(CNC(=O)CCNCCS(=O)(=O)c2cccc(Nc3cc(S(=O)(=O)O)c(N)c4c3C(=O)c3ccccc3C4=O)c2)c1 [IIIg] | 5.60 | 6.79 |  |  | 
15 | CCC(CSCC(NC(=O)CCC(N)C(=O)O)C(=O)NCC(=O)O)C(=O)c1ccc(OCC(=O)NCCCC(=O)NCc2cc(CNC(=O)CCCNC(=O)COc3ccc(C(=O)C(CC)CSCC(NC(=O)CCC(N)C(=O)O)C(=O)NCC(=O)O)c(Cl)c3Cl)cc(C(N)=O)c2)c(Cl)c1Cl (stereo not shown) [IIe] | 8.42 | 6.45 | 30 fold |  | 

Now from value to compound, other results behind:

Row | pIC50 [1] | pIC50 [2] | fold greater affinity for GSTP1-1 (lower IC50) than the ligand domain alone [2] | fold lower IC50 for GSTP1-1 than the monovalent inhibitor ([2]; versus IVj) [fold] | Structure (SMILES) | isozyme specificity GSTP1-1 versus GSTA1-1 ([2]; in words)
16 | 5.88 | < 5.00 |  |  | C=C(CC)C(=O)c1ccc(OCC(=O)Nc2ccc(NC(=O)COc3ccc(C(=O)C(=C)CC)c(Cl)c3Cl)cc2)c(Cl)c1Cl [IVb, Bis-1,4-ethacrynyl-phenylenediamine] | 
17 | 7.53 | 6.00 |  |  | C=C(CC)C(=O)c1ccc(OCC(=O)NCc2cc(CNC(=O)COc3ccc(C(=O)C(=C)CC)c(Cl)c3Cl)cc(C(N)=O)c2)c(Cl)c1Cl [IVc] | 
18 | 7.92 and 7.91 | 5.92 |  |  | C=C(CC)C(=O)c1ccc(OCC(=O)NCCC(=O)NCc2cc(CNC(=O)CCNC(=O)COc3ccc(C(=O)C(=C)CC)c(Cl)c3Cl)cc(C(N)=O)c2)c(Cl)c1Cl [IVe] | 
19 | 7.85 | 6.23 |  |  | C=C(CC)C(=O)c1ccc(OCC(=O)NCCCC(=O)NCc2cc(CNC(=O)CCCNC(=O)COc3ccc(C(=O)C(=C)CC)c(Cl)c3Cl)cc(C(N)=O)c2)c(Cl)c1Cl [IVf] | 
20 | 5.48 | 6.55 |  |  | NC(CCC(=O)NC(CSc1ccc(C(=O)OCCCOC(=O)c2cccc(C(=O)OCCCOC(=O)c3ccc(SCC(NC(=O)CCC(N)C(=O)O)C(=O)NCC(=O)O)c([N+](=O)[O-])c3)c2)cc1[N+](=O)[O-])C(=O)NCC(=O)O)C(=O)O (stereo not shown) [IIc] | 
21 | < 5.00 | 4.41 |  |  | NC(=O)c1cccc(CNC(=O)CCCC(=O)NCSCC(NC(=O)CCC(N)C(=O)O)C(=O)NCC(=O)O)c1 (stereo not shown) [Ih*, reference compound] | 
22 | 6.70 | 6.44 |  |  | NC(CCC(=O)NC(CSCCCCCCCCOC(=O)CCCCCCCSCC(NC(=O)CCC(N)C(=O)O)C(=O)NCC(=O)O)C(=O)NCC(=O)O)C(=O)O (stereo not shown) [Ia] | 
23 | 5.23 | 5.82 |  |  | CCC(CSCC(NC(=O)CCC(N)C(=O)O)C(=O)NCC(=O)O)C(=O)c1ccc(OCC(=O)NCCCC(=O)NCc2cccc(C(N)=O)c2)c(Cl)c1Cl (stereo not shown) [IIf*, reference compound] | 
24 | 5.42 | 5.42 |  |  | COC(=O)CCCCCCCSCC(NC(=O)CCC(N)C(=O)O)C(=O)NCC(=O)O (stereo not shown) [If*, reference compound] | 
25 | 6.47 | 6.52 |  |  | NC(CCC(=O)NC(CSCCCCCCCCCOC(=O)CCCCCCCSCC(NC(=O)CCC(N)C(=O)O)C(=O)NCC(=O)O)C(=O)NCC(=O)O)C(=O)O (stereo not shown) [Ib] | 
26 | 6.96 | 6.70 |  |  | NC(CCC(=O)NC(CSCCCCCCCCCCCOC(=O)CCCCCCCSCC(NC(=O)CCC(N)C(=O)O)C(=O)NCC(=O)O)C(=O)NCC(=O)O)C(=O)O (stereo not shown) [Id] | 
27 | 7.27 | 7.51 | approximately 129 fold | 403 | C=C(CC)C(=O)c1ccc(OCC(=O)NCCCCCCCC(=O)NCc2cc(CNC(=O)CCCCCCCNC(=O)COc3ccc(C(=O)C(=C)CC)c(Cl)c3Cl)cc(C(N)=O)c2)c(Cl)c1Cl [IVh] | 
28 | 7.64 | 6.20 |  |  | C=C(CC)C(=O)c1ccc(OCC(=O)NCC(=O)NCc2cc(CNC(=O)CNC(=O)COc3ccc(C(=O)C(=C)CC)c(Cl)c3Cl)cc(C(N)=O)c2)c(Cl)c1Cl [IVd] | 
29 | 6.80 | 7.10 |  |  | NC(CCC(=O)NC(CSCCCCCCCCCCOC(=O)CCCCCCCSCC(NC(=O)CCC(N)C(=O)O)C(=O)NCC(=O)O)C(=O)NCC(=O)O)C(=O)O (stereo not shown) [Ic] | 
30 | 6.13 | < 5.00 |  |  | C=C(CC)C(=O)c1ccc(OCC(=O)Nc2cccc(NC(=O)COc3ccc(C(=O)C(=C)CC)c(Cl)c3Cl)c2)c(Cl)c1Cl [IVa, Bis-1,3-ethacrynyl-phenylenediamine] | 
31 | 6.85 | 6.72 |  |  | NC(CCC(=O)NC(CSCCCCCCCCCCCCOC(=O)CCCCCCCSCC(NC(=O)CCC(N)C(=O)O)C(=O)NCC(=O)O)C(=O)NCC(=O)O)C(=O)O (stereo not shown) [Ie] | 
32 | < 5.00 | 4.61 |  |  | NC(=O)c1cc(CNC(=O)CCCNC(=O)CSCC(NC(=O)CCC(N)C(=O)O)C(=O)NCC(=O)O)cc(CNC(=O)CCCNC(=O)CSCC(NC(=O)CCC(N)C(=O)O)C(=O)NCC(=O)O)c1 (stereo not shown) [Ig] | 
